Molecules are shown by their SMILES.

The test system of this test is U87MG intracranial brain tumors. As to the kind of experiment: In vivo antitumor efficiency of gene silencing-enhanced radiotherapy. The arrangement: species or system mice. As to the method:
For the animal experiments, luciferase expression plasmid-transfected U87MG cell-implanted pathogen-free male NU/NU mice (5-7 weeks old, 20-25 g, from BioLASCO, Taiwan) were employed in this study. U87MG cells were cultured at 37° C. with 5% CO2 in M EM with 10% fetal bovine serum and 1% penicillin/streptomycin (Invitrogen). Mice were anaesthetized with 2% isoflurane gas and immobilized on a stereotactic frame to implant U87MG cells. A sagittal incision in the skin overlying the calvarium was created. U87MG cell implantation was performed by creating a hole in the exposed cranium 1.5 mm anterior and 2 mm lateral to the bregma using a 27G needle. A total volume of 5 μL of U87MG cell suspension (1×10^5 cell/μL) was injected at a depth of 3 mm from the brain surface over a 5 min period. The needle was withdrawn over 2 min. MRI was performed to monitor brain tumor growth for 7 days after tumor cell implantation.
The details of the CE D procedure are as described in our previous study. Briefly, infusion cannulas were fabricated with silica tubing (Polymicro Technologies, Phoenix, AZ, USA) fused to a 0.1 mL syringe (Plastic One, Roanoke, VA, USA) with a 0.5 mm stepped-tip needle that protruded from the silica guide base. The treatment agents (VLPs or drugs) were loaded into the syringes and attached to a microinfusion pump (Bioanalytical Systems, Lafayette, IN, USA). The syringe with a silica cannula was mounted onto a stereotactic holder and then lowered through a puncture hole made in the skull to the implanted tumor. The sample solution was infused at a rate of 1 μL/min until a volume of 5 μL had been delivered, and the cannula was removed 2 min later.
All animal experiments were approved by the Animal Committee of Chang Gung University and adhered to the experimental animal care guidelines (IACUC NO. CGU106-036). Mice were raised in a room with a thermostat at 26° C. Nu/Nu mice weighing approximately 25-30 g (5-6 weeks old) were tested to confirm the efficacy of the proposed approach. Intracranial brain tumors were induced by transplantation of U87MG cells into mouse brains. Briefly, cultured U87MG cells (5×10^5 cells/mouse) were injected over a 2 min period into the brain using a syringe, and needle withdrawal was conducted over another period of 0.5 min. A total of 50 mice were used, and the experiments were divided into five groups. In Group 1 (n=10), the mice received no further treatment after transplantation of U87MG cells, and these mice served as the control. In Group 2 (n=10), the mice received TrQβ VLPs (5 μM) via CED infusion two times (every 7 days) after 7 days of U87MG cell transplantation. […] The intracranial tumor volume in mice was measured by MR imaging. The survival time was calculated from the day of U87MG cell inoculation (0 day) to the day of death. […]

Where [1] appears, read: CED infusion followed by 2Gy X-ray irradiation.

On to `N.N.O=C([O-])C1(C(=O)[O-])CCC1.[Pt+2]` [carboplatin], for which the median survival under setting [1] is 51 days. In addition, under setting [1], the “mice survived over 54 days” value stood at 10%. The “tumor volume by MRI” value is, setting by setting: (Day 34, CED infusion followed by 2Gy X-ray irradiation) 18.9±17.8 mm3; (Day 41, CED infusion followed by 2Gy X-ray irradiation) 55.2±36.5 mm3.

For the origin of these results see patent publication US20250332279A1, “PHARMACEUTICAL COMPOSITION AND METHOD FOR TREATING GLIOBLASTOMAS” (National Cheng Kung University, priority 2024, published 2025).
